# Experimental data taken from ChEMBL document CHEMBL4028802, “DILIrank: the largest reference drug list ranked by the risk for developing drug-induced liver injury in humans” (Drug Discov Today, 2016).
# Assays:
# Homo sapiens [1] = species: Homo sapiens; experiment: Liver toxicity in human assessed as induction of drug-induced liver injury by measuring severity class index
# Homo sapiens [2] = species: Homo sapiens; experiment: Liver toxicity in human assessed as induction of drug-induced liver injury by measuring verified drug-induced liver injury concern status
# Wherever DILI severity class is given: key of the grades not given here.
Compound,DILI_severity_class (Homo sapiens [1]),DILI_Concern (Homo sapiens [2])
Clc1ccc2c(c1)C(c1ccccc1)=NCc1nncn1-2 [ESTAZOLAM],0,No-Dili-Concern
C[C@]12CC[C@@H]3c4ccc(O)cc4CC[C@H]3[C@@H]1CC[C@@H]2O [ESTRADIOL],2,Less-Dili-Concern
C[C@]12CC[C@@H]3c4ccc(OC(=O)N(CCCl)CCCl)cc4CC[C@H]3[C@@H]1CC[C@@H]2O [ESTRAMUSTINE],4,Most-Dili-Concern
C[C@]12CC[C@@H]3c4ccc(O)cc4CC[C@H]3[C@@H]1CCC2=O [ESTRONE],2,Ambiguous-Dili-Concern
C1CNCCN1.C[C@]12CC[C@@H]3c4ccc(OS(=O)(=O)O)cc4CC[C@H]3[C@@H]1CCC2=O [ESTROPIPATE],2,Ambiguous-Dili-Concern
CN1CCN(C(=O)O[C@H]2c3nccnc3C(=O)N2c2ccc(Cl)cn2)CC1 [ESZOPICLONE],3,Ambiguous-Dili-Concern
C=C(CC)C(=O)c1ccc(OCC(=O)O)c(Cl)c1Cl [ETHACRYNIC ACID],5,Ambiguous-Dili-Concern
CC[C@@H](CO)NCCN[C@@H](CC)CO [ETHAMBUTOL],8,Most-Dili-Concern
CCCCCCCC/C=C\CCCCCCCC(=O)O.NCCO [ETHANOLAMINE OLEATE],0,No-Dili-Concern
CCc1cc(C(N)=S)ccn1 [ETHIONAMIDE],3,Less-Dili-Concern
CCC1(C)CC(=O)NC1=O (stereo unspecified) [ETHOSUXIMIDE],3,Ambiguous-Dili-Concern
CCN1C(=O)NC(c2ccccc2)C1=O (stereo unspecified) [ETHOTOIN],3,Ambiguous-Dili-Concern
CC(O)(P(=O)(O)O)P(=O)(O)O [ETIDRONIC ACID],0,No-Dili-Concern
CCc1cccc2c3c([nH]c12)C(CC)(CC(=O)O)OCC3 (stereo unspecified) [ETODOLAC],8,Most-Dili-Concern
CCOC(=O)c1cncn1[C@H](C)c1ccccc1 [ETOMIDATE],0,No-Dili-Concern
C#C[C@]1(O)CC[C@H]2[C@@H]3CCC4=CC(=O)CC[C@@H]4[C@H]3C(=C)C[C@@]21CC [ETONOGESTREL],5,Ambiguous-Dili-Concern
COc1cc([C@@H]2c3cc4c(cc3[C@@H](O[C@@H]3O[C@@H]5CO[C@@H](C)O[C@H]5[C@H](O)[C@H]3O)[C@H]3COC(=O)[C@H]23)OCO4)cc(OC)c1O [ETOPOSIDE],3,Less-Dili-Concern
Cc1cc(C#N)cc(C)c1Oc1nc(Nc2ccc(C#N)cc2)nc(N)c1Br [ETRAVIRINE],8,Most-Dili-Concern
CO[C@H]1C[C@@H]2CC[C@@H](C)[C@@](O)(O2)C(=O)C(=O)N2CCCC[C@H]2C(=O)O[C@H]([C@H](C)C[C@@H]2CC[C@@H](OCCO)[C@H](OC)C2)CC(=O)[C@H](C)/C=C(\C)[C@@H](O)[C@@H](OC)C(=O)[C@H](C)C[C@H](C)/C=C/C=C/C=C/1C [EVEROLIMUS],4,Ambiguous-Dili-Concern
C/C(=N\O)C(C)NCC(C)(C)CNC(C)/C(C)=N/O (stereo unspecified) [EXAMETAZIME],0,No-Dili-Concern

Compound,DILI_severity_class (Homo sapiens [1]),DILI_Concern (Homo sapiens [2])
C=C1C[C@@H]2[C@H](CC[C@]3(C)C(=O)CC[C@@H]23)[C@@]2(C)C=CC(=O)C=C12 [EXEMESTANE],4,Most-Dili-Concern
O=C(c1cc(O)c(O)c(O)c1)c1ccc(O)c(O)c1O [EXIFONE],8,Most-Dili-Concern
O=C1[C@H](CC[C@H](O)c2ccc(F)cc2)[C@@H](c2ccc(O)cc2)N1c1ccc(F)cc1 [EZETIMIBE],3,Less-Dili-Concern
CN1CCC(Nc2ncc3ncnc(Nc4ccc(F)c(Cl)c4)c3n2)CC1 [FALNIDAMOL],8,Most-Dili-Concern
CC(=O)OCC(CCn1cnc2cnc(N)nc21)COC(C)=O [FAMCICLOVIR],3,Ambiguous-Dili-Concern
NC(N)=Nc1nc(CSCCC(N)=NS(N)(=O)=O)cs1 [FAMOTIDINE],3,Less-Dili-Concern
Cc1nc(-c2ccc(OCC(C)C)c(C#N)c2)sc1C(=O)O [FEBUXOSTAT],8,Most-Dili-Concern
NC(=O)OCC(COC(N)=O)c1ccccc1 [FELBAMATE],7,Most-Dili-Concern
CCOC(=O)C1=C(C)NC(C)=C(C(=O)OC)C1c1cccc(Cl)c1Cl (stereo unspecified) [FELODIPINE],3,Less-Dili-Concern
O=C(O)Cc1csc(-c2ccc(Cl)cc2)n1 [FENCLOZIC ACID],8,Most-Dili-Concern
CC(C)OC(=O)C(C)(C)Oc1ccc(C(=O)c2ccc(Cl)cc2)cc1 [FENOFIBRATE],3,Less-Dili-Concern
CC(C)(Oc1ccc(C(=O)c2ccc(Cl)cc2)cc1)C(=O)O [FENOFIBRIC ACID],2,Ambiguous-Dili-Concern
Oc1ccc(C2CNCCc3c2cc(O)c(O)c3Cl)cc1 (stereo unspecified) [FENOLDOPAM],0,No-Dili-Concern
CC(C(=O)O)c1cccc(Oc2ccccc2)c1 (stereo unspecified) [FENOPROFEN],8,Most-Dili-Concern
CC(C)C(=O)Oc1ccc(CO)cc1[C@H](CCN(C(C)C)C(C)C)c1ccccc1 [FESOTERODINE],0,No-Dili-Concern
CC(C)(C(=O)O)c1ccc(C(O)CCCN2CCC(C(O)(c3ccccc3)c3ccccc3)CC2)cc1 (stereo unspecified) [FEXOFENADINE],0,No-Dili-Concern
O=c1[nH]c(=O)n([C@@H]2O[C@H](CO)[C@@H](O)[C@@H]2F)cc1I [FIALURIDINE],8,Most-Dili-Concern
COc1cccc2c1[C@@H]1CN(CCCCn3c(=O)[nH]c4c(sc5ncc(-c6ccccc6)nc54)c3=O)C[C@@H]1CO2 [FIDUXOSIN],8,Most-Dili-Concern
CC(C)(C)NC(=O)[C@H]1CC[C@H]2[C@@H]3CC[C@H]4NC(=O)C=C[C@]4(C)[C@H]3CC[C@]12C [FINASTERIDE],0,Less-Dili-Concern
O=C(COc1ccc(Cl)cc1)N1CCN(Cc2ccc3c(c2)OCO3)CC1 [FIPEXIDE],8,Most-Dili-Concern

Compound,DILI_severity_class (Homo sapiens [1]),DILI_Concern (Homo sapiens [2])
Cc1c(-c2ccccc2)oc2c(C(=O)OCCN3CCCCC3)cccc2c1=O [FLAVOXATE],0,No-Dili-Concern
O=C(NCC1CCCCN1)c1cc(OCC(F)(F)F)ccc1OCC(F)(F)F (stereo unspecified) [FLECAINIDE],7,Less-Dili-Concern
OC(Cn1cncn1)(Cn1cncn1)c1ccc(F)cc1F [FLUCONAZOLE],8,Most-Dili-Concern
Nc1nc(=O)[nH]cc1F [FLUCYTOSINE],3,Ambiguous-Dili-Concern
Nc1nc(F)nc2c1ncn2[C@@H]1O[C@H](COP(=O)(O)O)[C@@H](O)[C@@H]1O [FLUDARABINE PHOSPHATE],0,No-Dili-Concern
C[C@]12CCC(=O)C=C1CC[C@H]1[C@@H]3CC[C@](O)(C(=O)CO)[C@@]3(C)C[C@H](O)[C@@]12F [FLUDROCORTISONE],0,No-Dili-Concern
CCOC(=O)c1ncn2c1CN(C)C(=O)c1cc(F)ccc1-2 [FLUMAZENIL],0,No-Dili-Concern
O=c1[nH]cc(F)c(=O)[nH]1 [FLUOROURACIL],0,Less-Dili-Concern
CNCCC(Oc1ccc(C(F)(F)F)cc1)c1ccccc1 (stereo unspecified) [FLUOXETINE],3,Less-Dili-Concern
C[C@]1(O)CC[C@H]2[C@@H]3CCC4=CC(=O)CC[C@]4(C)[C@@]3(F)[C@@H](O)C[C@@]21C [FLUOXYMESTERONE],8,Ambiguous-Dili-Concern
OCCN1CCN(CCCN2c3ccccc3Sc3ccc(C(F)(F)F)cc32)CC1 [FLUPHENAZINE],3,Ambiguous-Dili-Concern
CCN(CC)CCN1C(=O)CN=C(c2ccccc2F)c2cc(Cl)ccc21 [FLURAZEPAM],4,Less-Dili-Concern
CC(C(=O)O)c1ccc(-c2ccccc2)c(F)c1 (stereo unspecified) [FLURBIPROFEN],3,Ambiguous-Dili-Concern
CC(C)C(=O)Nc1ccc([N+](=O)[O-])c(C(F)(F)F)c1 [FLUTAMIDE],8,Most-Dili-Concern
CC(C)n1c(/C=C/C(O)CC(O)CC(=O)O)c(-c2ccc(F)cc2)c2ccccc21 (stereo unspecified) [FLUVASTATIN],3,Less-Dili-Concern
COCCCC/C(=N\OCCN)c1ccc(C(F)(F)F)cc1 [FLUVOXAMINE],3,Ambiguous-Dili-Concern
Nc1nc2ncc(CNc3ccc(C(=O)N[C@@H](CCC(=O)O)C(=O)O)cc3)nc2c(=O)[nH]1 [FOLIC ACID],0,No-Dili-Concern
Cc1cn[nH]c1 [FOMEPIZOLE],3,Ambiguous-Dili-Concern
